For one series, the target named is T1, TrxR1, Trx1 and Prdx2 (Homo sapiens, UniProt P32119).
T1 construct: purchased Novus Biological NBP1-44456 (TrxR1), NBC1-18541 (Trx1), NBC1-25855 (Prdx2)
T1 sequence (P32119 1-198): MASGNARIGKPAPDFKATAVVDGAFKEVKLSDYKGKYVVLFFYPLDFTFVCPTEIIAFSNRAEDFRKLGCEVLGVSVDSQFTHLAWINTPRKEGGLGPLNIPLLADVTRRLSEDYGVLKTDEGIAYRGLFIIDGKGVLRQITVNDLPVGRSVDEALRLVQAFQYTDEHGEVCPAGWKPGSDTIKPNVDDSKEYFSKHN
The experiment in a line: TrxR1-Trx1-Prdx2 system biochemical assay (NADPH consumption). Particulars: 100 µM compound, H2O2 50 µM, NADPH 75 µM. On the procedure:
NADPH consumption measurements were performed according to the method described by Nelson et al.[50] in the presence of TrxR1, Trx1 and Prdx2 (Novus Biological NBP1-44456, NBC1-18541 and NBC1-25855, respectively). The incubations contained TrxR1 0.5 µM, Trx1 5 µM, Prdx2 0.5 µM, H2O2 50 µM, NADPH 75 µM in 25 mM potassium phosphate pH 7, 100 mM ammonium sulphate. The experiments were carried out in 96-wells black plates and in triplicate. Briefly, TrxR1, Trx1, and H2O2 were pre-incubated for 5 min at 25 °C for thermal equilibration. Upon addition of NADPH the initial NADPH auto-fluorescence was recorded for 2 min on a scanning microplate reader (PerkinElmer Enspire; Ex. 340 nm, Em. 482 nm) to insure that less than 10% of NADPH is oxidized in the absence of Prdx2. Ultimately Prdx2 was added to start the enzymatic reaction, which was monitored during 60 minutes. To test the effect of the compounds on NADPH consumption, KH176m and KH176 were added at 100 µM final concentration, after the addition of Prdx2. The NADPH fluorescence was followed in time. […] A parallel reaction without TrxR was performed to quantified non-specific NADPH oxidation and used for background correction.

A short description of series [1]: Intracellular conversion of KH176 into KH176m (LC-MS/MS). Particulars: 24 hours incubation with 3 µM KH176.
Procedure: Cells were seeded at a density of 125 × 10^3 cells/well into 6-wells transparent plates (#657160, Greiner Bio-one) and incubated for 24 h. The culture medium was then replaced with fresh medium containing 3 µM KH176 and the cells were incubated for an additional 24 h. At the end of the treatment time, cells were washed twice with ice-cold PBS (#200120169, Thermo Fischer Scientific) before deprotenization with perchloric acid. The samples were then analyzed with standard LC-MS/MS system (Accela HPLC system, Thermo Fischer Scientific) equipped with a Zorbax Eclipse Plus C18 analytical column (Rapid Resolution HD 1.8 μm; 50 × 2.1 mm, Agilent, USA) and coupled with a UHPLC Guard Zorbax Eclipse Plus C18 pre-column (1.8 µm; 5 × 2.1 mm, Agilent). After separation the eluate was directly passed into a TSQ Vantage tandem mass spectrometer (Thermo Fischer Scientific) equipped with an electro-spray ionization source. Detection of the compounds was based on isolation of the protonated molecular ion, [M + H]+, and subsequent MS/MS fragmentations and selected reaction monitoring were performed. Proprietary compounds of Khondrion were used as internal standards.
Another series concerns the target T2, CCDC101 (Homo sapiens, UniProt Q96ES7).
T2 construct: purchased Abcam Ab124547
T2 sequence (Q96ES7 1-293): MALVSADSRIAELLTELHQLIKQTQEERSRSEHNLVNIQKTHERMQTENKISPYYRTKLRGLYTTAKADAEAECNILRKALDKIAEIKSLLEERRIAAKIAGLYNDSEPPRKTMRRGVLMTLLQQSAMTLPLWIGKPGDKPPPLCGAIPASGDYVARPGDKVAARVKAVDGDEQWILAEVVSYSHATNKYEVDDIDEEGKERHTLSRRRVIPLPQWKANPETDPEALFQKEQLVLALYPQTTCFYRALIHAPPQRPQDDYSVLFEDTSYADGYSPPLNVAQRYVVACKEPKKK
The experiment in a line: Surface Plasmon Resonance binding. Conditions: SPR. On the procedure: Prior to protein immobilization all proteins were dialyzed against HBS-E (10 mM Hepes, 150 mM NaCl, 3 mM EDTA) buffer that was previously filtered through a 0.45 µM membrane using dialyze slide according to the manufacturer instruction. Human recombinant proteins peroxiredoxin 2 (Novus Biological NBC1-25855) and CCDC101 (Abcam Ab124547) were immobilized on CM5 (carboxymethylated dextran covalently attached to a gold surface) using the amine coupling method according to manufacturer’s recommendation (Biacore, GE Healthcare). Briefly the CM5 surface was activated with the mixture of EDC/NHS. Recombinant proteins at dilution 1 µg/ml in a corresponding buffer i.e. Peroxiredoxin 2 and CCDC101 in sodium acetate buffer 100 mM (pH 4.9). The control channel was activated with EDC/NHS. […] KH176 andKH176m were solubilized in HBSS at stock solution 1 mM. […] The sensor chip surface was regenerated with 1 mM HCl. The specific binding profiles were obtained after subtracting the response signal from the control empty channel and from blank-buffer injection. The specific binding was calculated using Biaeval 3 software (Biacore, GE Healthcare) with the postulate of 1:1 ligand/analyte interaction.

The conditions of series [2]: cited from earlier work.
Series [3] deals with OXPHOS deficient cell lines. Put plainly: Redox Stress Survival assay, extended panel of OXPHOS deficient cell lines. The format is cell-based. Particulars: Homo sapiens, BSO insult, read-out: EC50 values, range over the panel of cell lines. On the procedure: Cells were seeded at a density of 4 × 10^3 cells/well into 96-wells black plates and incubated for 24 h. To induce redox stress, semi-logarithmic dilutions of buthionine sulphoximine (BSO, #B2515, Sigma Aldrich) up to 100 µM were added to the cells in culture medium and incubated for 24 h. Cell viability was assessed by quantification of cellular conversion of Calcein AM into fluorescent Calcein. Briefly, after having discarded the BSO containing medium, cells were washed once with M199 without phenol red and loaded with 2 µM Calcein AM (#65-0853-39, Affimetrix eBioscience) in M199 without phenol red for 25 min. At the end of the incubation period, the excess of the dye was washed with M199 without phenol red and Calcein fluorescence was measured with a scanning microplate reader (BMG FLUOstar Omega; Ex. 480 nm, Em. 520 nm). For compound screening and target identification measurements cells were treated with 200 µM BSO alone or in co-incubation with semi-logarithmic dilutions of the test compound. Additionally, where indicated, increasing doses of Auranofin (AFN, #BML-EI206-0100, Enzo) or Aurothioglucose (ATG, #A0606, Sigma Aldrich) were co-incubated with BSO and the test compound. In all cases, cell viability was assessed 24 h after the treatment.

For `CC1=C(C)C(=O)C(CC[C@](C)(O)C(=O)N[C@@H]2CCCNC2)=C(C)C1=O` [KH176m], on TrxR1, Trx1 and Prdx2, the “Effect on NADPH consumption” value is given as “significantly accelerate the consumption of NADPH”. The “Ratio KH176m/KH176 in cells” value in series [1] came out at 0.48. For the same molecule, the “Binding to CCDC101” value on CCDC101 was “no binding”.
As a reminder, the EC50 is the concentration that produces a half-maximal response. As to `Cc1c(C)c2c(c(C)c1O)CC[C@@](C)(C(=O)N[C@@H]1CCCNC1)O2.Cl` [KH176, (S)-6-hydroxy-2,5,7,8-tetramethyl-N-((R)-piperidin-3-yl)chroman-2-carboxamide hydrochloride], the “Safety in Phase 1” value in series [2] (healthy adult male volunteers, NCT02544217) is given as “acceptable safety”. In addition, in series [2] (human, in vivo), the “Pharmacokinetic properties in Phase 1” value is on record as “good pharmacokinetic properties”. The EC50 in series [3] lay within 35 to 270 nM.

Values taken from paper PMC5920042, “KH176 Safeguards Mitochondrial Diseased Cells from Redox Stress-Induced Cell Death by Interacting with the Thioredoxin System/Peroxiredoxin Enzyme Machinery” (Scientific Reports, 2018).
